Measured values from US20230381125A1.
Read-outs that look alike come from different tables or passages of the source.

What was measured:
[1] = phase 1b oral dosing study; cited from earlier work
MHV-1 = MHV-1 infected A/J mice given GABA-R agonist in drinking water; type: in vivo; details: for body weight loss vs. plain water (FIG. 4A) / death rate vs. plain water (FIG. 4C) / disease (illness) scores vs. plain water (FIG. 4B) / lung coefficient index vs. plain water (FIG. 4D): Example 2, in water: GABA 2 mg/mL, homotaurine 0.25 mg/mL, baclofen 0.25 mg/mL; for mice that died up to day 14 post-infection: control 3/9 survived; for average body weight loss by day 6: control lost 23%
SARS-CoV-2 [2] = details: cited from earlier work
[3] = room temperature; cited from earlier work
[4] = tested on: anti-CD3-activated human PBMC; details: cited from earlier work
[5] = rodent models of acute lung injury; cited from earlier work
[6] = molecular target: SARS-CoV-2 binding to its cellular receptor (UniProt P0DTC2+Q9BYF1); details: NIH core screening facility data; cited from earlier work
SARS-CoV-2 [7] = type: in vivo, K18-hACE2 mice; details: for mice that died during the 7-day observation period: control 3/5 died
[8] = cited from earlier work; for CD4+ and CD8+ Treg responses in vivo / autoreactive Th1 and Th17 cells in vivo: in vivo administration; for disease progression in mouse models of type 1 diabetes, multiple sclerosis, and rheumatoid arthritis / inflammation in a mouse model of type 2 diabetes: in vivo
[9] = cited from earlier work
[10] = large long-term phase III clinical trial; cited from earlier work
[11] = GABA 20 mg/ml in water, from 3 days post-infection
[12] = GABA 20 mg/ml in water, starting immediately after MHV-1 inoculation
[13] = 0.2 mg/mL p=0.049, 20 mg/mL p=0.174, log-rank test

Structure (SMILES): NCCCC(=O)O [GABA, gamma-aminobutyric acid]
- safety [1]: safe
- body weight loss vs. plain water (FIG. 4A) (MHV-1): significantly reduced
- death rate vs. plain water (FIG. 4C) (MHV-1): significantly reduced
- disease (illness) scores vs. plain water (FIG. 4B) (MHV-1): significantly reduced
- body weight loss vs. control (FIG. 1A) (MHV-1; GABA0 and GABA3 vs. control, p<0.0001): reduced
- illness scores vs. control (FIG. 2) (MHV-1; GABA0 and GABA3 vs. control, p<0.001): reduced
- survival following MHV-1 infection vs. control (FIG. 1B) (MHV-1; GABA0 p=0.002, GABA3 p=0.001, log rank test): increased
- highest average illness score (scale 0-5) (MHV-1; GABA 20 mg/ml in water immediately after inoculation, day 7 post-infection): 1.6
- body weight at 14 days post-infection, % of starting weight (MHV-1; [11]): 90%
- maximum mean illness score (scale 0-5) (MHV-1; [11]): 2.5
- mice that died up to day 14 post-infection (MHV-1; GABA 20 mg/ml in water, from 3 days post-infection, death on day 9): 1/9
- average body weight loss by day 6 (MHV-1; GABA 20 mg/ml in water, given from three days after infection): 17%
- average body weight loss by day 6 (MHV-1; GABA 20 mg/ml in water, given immediately after MHV-1 infection): 11%
- body weight below starting weight 14 days post-infection (MHV-1; [12]): 7%
- mice that died up to day 14 post-infection (MHV-1; [12]): none
- interference with SARS-CoV-2 replication (SARS-CoV-2 [2]; NIH core screening facility data): did not interfere
- effect on SARS infection or replication (SARS-CoV-2 [2]; NIH drug screening program): no effect
- stability [3]: stable at room temperature
- IL-6, CXCL10/IP-10, CCL4, CCL20, and MCP-3 production [4]: inhibits
- inflammation, alveolar fluid clearance and lung functional recovery [5]: reduce inflammation and improve alveolar fluid clearance and lung functional recovery
- interference with SARS-CoV-2 interaction with its cellular receptor [6]: did not interfere
- death rates vs. plain water (SARS-CoV-2 [7]; [13]): reduced
- survival following SARS-CoV2 infection vs. control (FIG. 5) (SARS-CoV-2 [7]; [13]): increased
- mice that died during the 7-day observation period (SARS-CoV-2 [7]; GABA 0.2 mg/mL in water, p<0.05): none
- mice that died during the 7-day observation period (SARS-CoV-2 [7]; GABA 20 mg/ml in water, p=0.174): 1/5
- viral N1 and N2 transcripts in the lungs (RT-qPCR) vs. control (SARS-CoV-2 [7]; lungs harvested on days 6-7, data not shown): tended to be lower
- CD4+ and CD8+ Treg responses in vivo [8]: promoting
- autoreactive Th1 and Th17 cells in vivo [8]: inhibits
- disease progression in mouse models of type 1 diabetes, multiple sclerosis, and rheumatoid arthritis [8]: inhibits disease progression
- inflammation in a mouse model of type 2 diabetes [8]: limits inflammation
- clinical benefit (ability to reduce seizures) ([9]; hundreds of epilepsy patients): no clinical benefit
- adverse effects ([9]; long-term studies in epilepsy patients): no adverse effects

Structure (SMILES): NCC(CC(=O)O)c1ccc(Cl)cc1 (centres unmarked) [baclofen]
- body weight loss vs. plain water (FIG. 4A) (MHV-1): did not significantly decrease
- death rate vs. plain water (FIG. 4C) (MHV-1): did not significantly decrease
- disease (illness) scores vs. plain water (FIG. 4B) (MHV-1): slight but significant ability to reduce
- lung coefficient index vs. plain water (FIG. 4D) (MHV-1): did not significantly decrease

Structure (SMILES): NCCCS(=O)(=O)O [homotaurine]
- body weight loss vs. plain water (FIG. 4A) (MHV-1): significantly reduced
- death rate vs. plain water (FIG. 4C) (MHV-1): significantly reduced
- disease (illness) scores vs. plain water (FIG. 4B) (MHV-1): significantly reduced
- lung coefficient index vs. plain water (FIG. 4D) (MHV-1): significantly reduced
- stability [3]: stable at room temperature
- efficacy in Alzheimer's disease [10]: not effective
- safety [10]: excellent safety record
- CD4+ and CD8+ Treg responses in vivo [8]: promoting
- autoreactive Th1 and Th17 cells in vivo [8]: inhibits
- disease progression in mouse models of type 1 diabetes, multiple sclerosis, and rheumatoid arthritis [8]: inhibits disease progression
- inflammation in a mouse model of type 2 diabetes [8]: limits inflammation
